Assay results reported in the supplement of paper PMC2824726.
Values joined by “and” are separate entries in the source; they are usually repeats but may differ in a detail not shown here. Equal entries are not always repeated.

test system: MDA-MB-231; test: shRNA barcode abundance ratio t_end/t_zero (depletion over 4 weeks of proliferation) (log2 ratio); higher = less depletion (weaker anti-proliferative effect of the shRNA); settings: time after t zero 28 days
Protocol: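 Pooled lentiviral negative-selection screen of 305 pGIPZ shRNAs (Open Biosystems V2LHS clones; the 21-nt half-hairpin sense stem is embedded in a mir-30 scaffold) in MDA-MB-231 breast carcinoma cells, infected at MOI 0.3 with 0.5 ug/ml puromycin selection. Barcode abundance was read on barcode tiling microarrays (six 25-nt probes per 60-nt barcode) at t_zero (5 days post-infection) and t_end (33 days; 28 days of culture after t_zero). Values are median-normalised t_end/t_zero signal ratios, averaged over the tiling probes that passed a 10-fold background filter, from three biological replicates.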

Sequence	shRNA barcode abundance ratio t end/t zero (log2)
CCAGAGGCTTCCACTTAATAT (targeted gene: APAF1)	0.0519
GGTGACTATACAGTCATTTAA (targeted gene: ATM)	-0.167
GCCAAGTTCTTAGTTGCTGTA (targeted gene: CXCR4)	-1.59
CCTTCCAGAGTTATGGAAATT (targeted gene: BCL2A1)	0.456
GCACAACCAGTTCTGCAATAT (targeted gene: TAX1BP1)	0.565
CGTAAGATGATGGATTTGATT (targeted gene: BIRC5)	0.0401
GGTCACTTTGTATATAGAATT (targeted gene: HBXIP)	0.371
CGAGTTTGTGGACTCCTTTAA (targeted gene: BAD)	-0.185
TCAGGAAATGTTATCAGCAAA (targeted gene: BNIP2)	0.477
CCACGCGACATCCAATCCATA (targeted gene: IL3)	-0.0678
GCACAGGCTTTATCGAGAATA (targeted gene: IGFBP3)	0.0415
AGACATAAAGCCATCTCTTAT (targeted gene: NME5)	0.11
CCAACACGTTTGAACTGAAAT (targeted gene: BIRC3)	0.578
GGGCATTTGAGAAATGCATAT (targeted gene: IL7)	0.11
AGAGAGAACTGCTCAGTAATT (targeted gene: BRE)	0.237
CGAGACATTCGCATCAAATAT (targeted gene: NRG2)	0.219
ACTTCAGAAATGGCACGATAA (targeted gene: AATF)	0.24
ACTCTAATCTCCACATTTATA (targeted gene: XIAP)	0.0933
CCCTGAGACCATATCCTTAAA (targeted gene: OPA1)	-0.115
CCTTCGCCAGATCACTGTTAA (targeted gene: PRDX2)	0.234
CCTGTTATCAATCTGCTAAAT (targeted gene: FOXO1)	0.0156
GCAAAGAATCTAGATGCAATA (targeted gene: IL6)	0.508 and 0.569

Sequence	shRNA barcode abundance ratio t end/t zero (log2)
GGACAGTGCTTGATACAGGAA (targeted gene: PIM1)	0.128
GCAGAAGCTCTCCAAATTGAA (targeted gene: APAF1)	0.521
GATCCTAAGATGTGTTCTTAT (targeted gene: CYP1B1)	0.664
GGCTAGACTTAGATTCATTAA (targeted gene: VHL)	0.486
GCAGATGAAGATCATCGAAAT (targeted gene: BRAF)	0.116
GGAACTTTAGTTGAAGCGTAA (targeted gene: APAF1)	0.303
GCCTGTCCATTGGTGATGTTG (targeted gene: HMGB1)	-0.18
GGTAAAGATGGCAAACAATAT (targeted gene: IL7)	0.391
GGATGTTGGAAATTACTATTA (targeted gene: HDAC1)	0.178
CCATTTACAGCCATTTCTAAA (targeted gene: ESR1)	0.128
ACTGCTGTACTGGTTTGCAAA (targeted gene: BNIP2)	0.104
CCAAATTGTGTTTGATGGATT (targeted gene: ESR1)	0.202
CGTTATTAACTTGTTATTTAG (targeted gene: API5)	0.468
CCTCACTTTCTCCAAGAAGTT (targeted gene: MAPK8IP2)	0.0658
CACCAGCACTTTATACACTTC (targeted gene: RHOC)	0.652
GCCGAAGATTTCACAGTCAAA (targeted gene: IGF1R)	0.225
GCCTACAGCTGCCTCCTAGAA (targeted gene: ANXA4)	0.417
CGAGGCAACTTGAACTCAGAA (targeted gene: IER3)	0.272
GGGCAAGTTTCCATCATCTAT (targeted gene: TDGF1)	-0.11
GGCTTTGTCTTTACAGGTAAA (targeted gene: NAIP)	0.603
CCTGTCAATATTGATGACTTG (targeted gene: BRAF)	0.319
GCTCACTACCAAATGTTAATA (targeted gene: BAD)	0.223

Sequence	shRNA barcode abundance ratio t end/t zero (log2)
CGGCTTTATGATGCTTATGAA (targeted gene: ANXA5)	0.161
CGAGAGAGTTTCCCTACGTAT (targeted gene: CDH1)	0.249
GGATATTGAACAGAGTATTAA (targeted gene: ANXA4)	-0.0211
CCATGTAATGGCAGTTATATT (targeted gene: HMGB1)	0.175
GCTGGACAACTTGTTGTTAAA (targeted gene: IL10)	0.168
GCAAATGGAATCTTTATGAAA (targeted gene: MALT1)	0.375
CCATATAGTTCCTTGGGATTA (targeted gene: BCL2L2)	0.203
GGGAATGATCAGATTCCTTTA (targeted gene: BFAR)	0.171
CGACTCTATCAGGGTATAAAT (targeted gene: MSH2)	0.0312
CCAATTCAAGTGATCCGCAAA (targeted gene: BAG3)	0.175
CGGATTAGGGCATTTGAGAAA (targeted gene: IL7)	0.319
CATCTCAGTATGCATGGTATA (targeted gene: CFLAR)	-0.976
CCAGAGAATTTGCTTACCAAA (targeted gene: RALBP1)	0.116
GATGATAGTATTGAAGCAGAT (targeted gene: BNIP2)	0.366
GCCTCACCAGTCCATTATTAT (targeted gene: BIRC6)	0.259
CGGACCTTAGTGAATATAAAT (targeted gene: OPA1)	-0.0398
GGCTTTACTCCGTAACAGATT (targeted gene: RHOA)	-2.14
CGCCTTTCCTTAAGGAACAAA (targeted gene: NAIP)	0.0933
GCGCAAGAAATCCCGGTATAA (targeted gene: VEGFA)	0.382
GCTGTAACTACTTTATAACTA (targeted gene: RHOA)	-0.0204
CGCTACTTCCTCCTCAAGAAT (targeted gene: AKT1)	0.372
GCTGGCAATTACCAGAACAAT (targeted gene: WRN)	0.0875

Sequence	shRNA barcode abundance ratio t end/t zero (log2)
GGGTAGAAATTGGCTTCATAA (targeted gene: WRN)	-0.246
CCACCTGGACTCCTATGAGAA (targeted gene: SOCS3)	0.145
GCCTGCTGAATTTATGTTGTA (targeted gene: RAB6C)	-1.3
AGCATTGTCATGAGCTTAATA (targeted gene: API5)	0.169
CCATATTTGCATTTGAAGGTA (targeted gene: BCL2A1)	0.349
GGCCATTATGCACAGGTTGAA (targeted gene: CD40LG)	0.119
GCGCGAGTTCGCTTCTAATAT (targeted gene: GSX1)	0.174
GCCACATGTCTTTGCTTGATA (targeted gene: NAIP)	0.453
CCAATGATGCTGCTCAAGTTA (targeted gene: ABCB1)	0.272
GCCTTGAAACATTGATGGAAT (targeted gene: BCL2)	0.25
CCTTAGCAATGTCTTAGGAAA (targeted gene: BIRC5)	-2.27
CCTCAGATTGTTGTTGTTAAT (targeted gene: IL6)	0.311
GCTTCCTACAGCACAACAAAT (targeted gene: VEGFA)	0.437
GCCTTGGAACTGATGAAGATA (targeted gene: ANXA1)	0.483
GGCCATGCCTGTTTACAAGAA (targeted gene: TP73)	-0.24
CCGTAGCCTCTGCCCTGTAAA (targeted gene: BAG3)	0.779
GGCCATTGTCACAGAGGATAA (targeted gene: MLH1)	0.62
ACGCTCTGTGGCCAGTGTAAA (targeted gene: SULF2)	0.249
GGTTTGTGCCTTACATTATTA (targeted gene: PSEN1)	-1.92
CCGAACATTAGGAATTGTTTA (targeted gene: ACVR1)	0.264
ACCCATTCTTCCCGTTCTTAA (targeted gene: HDAC1)	0.135
